Test results from patent US12077503B2, “Substituted cyclic amides and their use as herbicides” (FMC CORPORATION, priority 2015, dated 2024).

Experiments:
Format in all cases: in vivo
[1] = tested on: pigweed (Amaranthus retroflexus); assay: Test A preemergence; conditions: Preemergence; for Plant response rating, Pigweed: 125 g ai/ha, visual injury after approximately 10 d, 0 to 100 scale where 0 is no effect and 100 is complete control; for Pigweed plant response rating (0 to 100 scale, 0 is no effect, 100 is complete control): 500 g ai/ha, visual injury approx. 10 d
Description: (§1) Seeds of plant species selected from barnyardgrass (Echinochloa crus-galli), Kochia (Kochia scoparia), ragweed (common ragweed, Ambrosia elatior), ryegrass, Italian (Italian ryegrass, Lolium multiflorum), crabgrass, large (Digitaria sanguinalis), giant foxtail (Setaria faberii), green foxtail (Setaria viridis), morningglory (Ipomoea spp.), pigweed (Amaranthus retroflexus), velvetleaf (Abutilon theophrasti), wheat (Triticum aestivum), and corn (Zea mays) were planted into a blend of loam soil and sand and treated preemergence with a directed soil spray using test chemicals formulated in anon-phytotoxic solvent mixture which included a surfactant.
(§2) At the same time, plants selected from these crop and weed species and also blackgrass (Alopecurus myosuroides), and Galium (catchweed bedstraw, Galium aparine) were planted in pots containing the same blend of loam soil and sand and treated with postemergence applications of test chemicals formulated in the same manner. Plants ranged in height from 2 to 10 cm and were in the one- to two-leaf stage for the postemergence treatment. Treated plants and untreated controls were maintained in a greenhouse for approximately 10 d, after which time all treated plants were compared to untreated controls and visually evaluated for injury. Plant response ratings, summarized in Table A, are based on a 0 to 100 scale where 0 is no effect and 100 is complete control. A dash (-) response means no test result.

[2] = tested on: barnyardgrass (Echinochloa crus-galli); assay: Test A preemergence; conditions: Preemergence; for Plant response rating, Barnyardgrass: 125 g ai/ha, visual injury after approximately 10 d, 0 to 100 scale where 0 is no effect and 100 is complete control; for Barnyardgrass plant response rating (0 to 100 scale, 0 is no effect, 100 is complete control): 500 g ai/ha, visual injury approx. 10 d
Description: as §1, §2

[3] = tested on: ragweed (common ragweed, Ambrosia elatior); assay: Test A preemergence; conditions: Preemergence; for Plant response rating, Ragweed: 125 g ai/ha, visual injury after approximately 10 d, 0 to 100 scale where 0 is no effect and 100 is complete control; for Ragweed plant response rating (0 to 100 scale, 0 is no effect, 100 is complete control): 500 g ai/ha, visual injury approx. 10 d
Description: as §1, §2

Kochia (Kochia scoparia) [4] = assay: Test A preemergence; conditions: Preemergence; for Plant response rating, Kochia: 125 g ai/ha, visual injury after approximately 10 d, 0 to 100 scale where 0 is no effect and 100 is complete control; for Kochia plant response rating (0 to 100 scale, 0 is no effect, 100 is complete control): 500 g ai/ha, visual injury approx. 10 d
Description: as §1, §2

[5] = tested on: ryegrass, Italian (Italian ryegrass, Lolium multiflorum); assay: Test A preemergence; conditions: Preemergence; for Plant response rating, Ryegrass, Italian: 125 g ai/ha, visual injury after approximately 10 d, 0 to 100 scale where 0 is no effect and 100 is complete control; for Ryegrass, Italian plant response rating (0 to 100 scale, 0 is no effect, 100 is complete control): 500 g ai/ha, visual injury approx. 10 d
Description: as §1, §2

[6] = tested on: giant foxtail (Setaria faberii); assay: Test A preemergence; conditions: Preemergence; for Plant response rating, Foxtail, Giant: 125 g ai/ha, visual injury after approximately 10 d, 0 to 100 scale where 0 is no effect and 100 is complete control; for Foxtail, Giant plant response rating (0 to 100 scale, 0 is no effect, 100 is complete control): 500 g ai/ha, visual injury approx. 10 d
Description: as §1, §2

[7] = tested on: pigweed (Amaranthus retroflexus); assay: Test A postemergence
Description: as §1, §2

[8] = tested on: wheat (Triticum aestivum); assay: Test A postemergence
Description: as §1, §2

[9] = tested on: blackgrass (Alopecurus myosuroides); assay: Test A postemergence; conditions: for Blackgrass plant response rating: 125 g ai/ha, postemergence, visual injury rating on 0 to 100 scale (0 no effect, 100 complete control), approx. 10 d; for Plant response rating, Blackgrass: Postemergence, 500 g ai/ha, 0 to 100 scale where 0 is no effect and 100 is complete control
Description: as §1, §2

[10] = tested on: barnyardgrass (Echinochloa crus-galli); assay: Test A postemergence; conditions: for Barnyardgrass plant response rating: 125 g ai/ha, postemergence, visual injury rating on 0 to 100 scale (0 no effect, 100 complete control), approx. 10 d; for Plant response rating, Barnyardgrass: Postemergence, 500 g ai/ha, 0 to 100 scale where 0 is no effect and 100 is complete control
Description: as §1, §2

[11] = tested on: ragweed (common ragweed, Ambrosia elatior); assay: Test A postemergence
Description: as §1, §2

[12] = tested on: Galium (catchweed bedstraw, Galium aparine); assay: Test A postemergence
Description: as §1, §2

Kochia (Kochia scoparia) [13] = assay: Test A postemergence
Description: as §1, §2

corn (Zea mays) = assay: Test A postemergence
Description: as §1, §2

[14] = tested on: ryegrass, Italian (Italian ryegrass, Lolium multiflorum); assay: Test A postemergence
Description: as §1, §2

[15] = tested on: giant foxtail (Setaria faberii); assay: Test A postemergence
Description: as §1, §2

[16] = 125 g ai/ha, postemergence, visual injury rating on 0 to 100 scale (0 no effect, 100 complete control), approx. 10 d
[17] = Postemergence, 500 g ai/ha, 0 to 100 scale where 0 is no effect and 100 is complete control
[18] = 125 g ai/ha, postemergence, visual rating after approx. 10 d, 0 to 100 scale (0 no effect, 100 complete control)

O=C(Nc1ccccc1F)C1C(=O)N(C2C=CCCC2)CC1c1cccc(C(F)(F)F)c1 (stereo not drawn) [Compound 524]
Plant response rating, Pigweed [1]: 0
Pigweed plant response rating (0 to 100 scale, 0 is no effect, 100 is complete control) [1]: 0
Plant response rating, Barnyardgrass [2]: 20
Barnyardgrass plant response rating (0 to 100 scale, 0 is no effect, 100 is complete control) [2]: 40
Plant response rating, Ragweed [3]: 0
Ragweed plant response rating (0 to 100 scale, 0 is no effect, 100 is complete control) [3]: 0
Plant response rating, Kochia (Kochia (Kochia scoparia) [4]): 0
Kochia plant response rating (0 to 100 scale, 0 is no effect, 100 is complete control) (Kochia (Kochia scoparia) [4]): 0
Plant response rating, Ryegrass, Italian [5]: 0
Ryegrass, Italian plant response rating (0 to 100 scale, 0 is no effect, 100 is complete control) [5]: 0
Plant response rating, Foxtail, Giant [6]: 40
Foxtail, Giant plant response rating (0 to 100 scale, 0 is no effect, 100 is complete control) [6]: 70
Pigweed plant response rating [7, 16]: 0
Plant response rating, Pigweed [7, 17]: 0
Wheat plant response rating [8, 16]: 0
Plant response rating, Wheat [8, 17]: 0
Blackgrass plant response rating [9]: 0
Plant response rating, Blackgrass [9]: 20
Barnyardgrass plant response rating [10]: 30
Plant response rating, Barnyardgrass [10]: 70
Ragweed plant response rating [11, 16]: 0
Plant response rating, Ragweed [11, 17]: 0
Galium plant response rating [12, 16]: 0
Plant response rating, Galium [12, 17]: 0
Kochia plant response rating (Kochia (Kochia scoparia) [13]; [16]): 0
Plant response rating, Kochia (Kochia (Kochia scoparia) [13]; [17]): 0
Corn plant response rating (corn (Zea mays); [16]): 0
Plant response rating, Corn (corn (Zea mays); [17]): 0
Ryegrass, Italian plant response rating [14, 16]: 0
Plant response rating, Ryegrass, Italian [14, 17]: 0
Foxtail, Giant plant response rating [15, 16]: 30
Plant response rating, Foxtail, Giant [15, 17]: 70

O=C(Nc1ccccc1F)C1C(=O)N(CC=CBr)CC1c1cccc(C(F)(F)F)c1 (stereo not drawn) [Compound 526]
Plant response rating, Pigweed [1]: 0
Pigweed plant response rating (0 to 100 scale, 0 is no effect, 100 is complete control) [1]: 0
Plant response rating, Barnyardgrass [2]: 0
Barnyardgrass plant response rating (0 to 100 scale, 0 is no effect, 100 is complete control) [2]: 20
Plant response rating, Ragweed [3]: 0
Ragweed plant response rating (0 to 100 scale, 0 is no effect, 100 is complete control) [3]: 0
Plant response rating, Kochia (Kochia (Kochia scoparia) [4]): 0
Kochia plant response rating (0 to 100 scale, 0 is no effect, 100 is complete control) (Kochia (Kochia scoparia) [4]): 0
Plant response rating, Ryegrass, Italian [5]: 0
Ryegrass, Italian plant response rating (0 to 100 scale, 0 is no effect, 100 is complete control) [5]: 0
Plant response rating, Foxtail, Giant [6]: 70
Foxtail, Giant plant response rating (0 to 100 scale, 0 is no effect, 100 is complete control) [6]: 80
Plant response rating, Pigweed [7, 18]: 0
Plant response rating, Pigweed [7, 17]: 0
Plant response rating, Wheat [8, 18]: 0
Plant response rating, Wheat [8, 17]: 0
Blackgrass plant response rating [9]: 0
Plant response rating, Blackgrass [9]: 0
Barnyardgrass plant response rating [10]: 10
Plant response rating, Barnyardgrass [10]: 20
Plant response rating, Ragweed [11, 18]: 0
Plant response rating, Ragweed [11, 17]: 0
Plant response rating, Galium [12, 18]: 0
Plant response rating, Galium [12, 17]: 0
Plant response rating, Kochia (Kochia (Kochia scoparia) [13]; [18]): 0
Plant response rating, Kochia (Kochia (Kochia scoparia) [13]; [17]): 0
Plant response rating, Corn (corn (Zea mays); [18]): 0
Plant response rating, Corn (corn (Zea mays); [17]): 0
Plant response rating, Ryegrass, Italian [14, 18]: 0
Plant response rating, Ryegrass, Italian [14, 17]: 0
Plant response rating, Foxtail, Giant [15, 18]: 20
Plant response rating, Foxtail, Giant [15, 17]: 40

O=C(Nc1cccc(F)c1F)C1C(=O)N(CC=CBr)CC1c1cccc(C(F)(F)F)c1 (stereo not drawn) [Compound 527]
Plant response rating, Pigweed [1]: 0
Pigweed plant response rating (0 to 100 scale, 0 is no effect, 100 is complete control) [1]: 0
Plant response rating, Barnyardgrass [2]: 0
Barnyardgrass plant response rating (0 to 100 scale, 0 is no effect, 100 is complete control) [2]: 20
Plant response rating, Ragweed [3]: 0
Ragweed plant response rating (0 to 100 scale, 0 is no effect, 100 is complete control) [3]: 0
Plant response rating, Kochia (Kochia (Kochia scoparia) [4]): 0
Kochia plant response rating (0 to 100 scale, 0 is no effect, 100 is complete control) (Kochia (Kochia scoparia) [4]): 0
Plant response rating, Ryegrass, Italian [5]: 0
Ryegrass, Italian plant response rating (0 to 100 scale, 0 is no effect, 100 is complete control) [5]: 0
Plant response rating, Foxtail, Giant [6]: 80
Foxtail, Giant plant response rating (0 to 100 scale, 0 is no effect, 100 is complete control) [6]: 80
Plant response rating, Pigweed [7, 18]: 0
Plant response rating, Pigweed [7, 17]: 0
Plant response rating, Wheat [8, 18]: 0
Plant response rating, Wheat [8, 17]: 0
Blackgrass plant response rating [9]: 0
Plant response rating, Blackgrass [9]: 0
Barnyardgrass plant response rating [10]: 0
Plant response rating, Barnyardgrass [10]: 20
Plant response rating, Ragweed [11, 18]: 0
Plant response rating, Ragweed [11, 17]: 0
Plant response rating, Galium [12, 18]: 0
Plant response rating, Galium [12, 17]: 0
Plant response rating, Kochia (Kochia (Kochia scoparia) [13]; [18]): 0
Plant response rating, Kochia (Kochia (Kochia scoparia) [13]; [17]): 0
Plant response rating, Corn (corn (Zea mays); [18]): 0
Plant response rating, Corn (corn (Zea mays); [17]): 0
Plant response rating, Ryegrass, Italian [14, 18]: 0
Plant response rating, Ryegrass, Italian [14, 17]: 0
Plant response rating, Foxtail, Giant [15, 18]: 0
Plant response rating, Foxtail, Giant [15, 17]: 20
